Laboratory results from ChEMBL document CHEMBL1153670 (Bioorg Med Chem Lett, 1995).

How the values were obtained:
HCT-116 [1] = experiment: Potency relative to paclitaxel in a tubulin polymerization assay in HCT116 cell line; assay type: functional, Homo sapiens
M109 [2] = experiment: In vivo cytotoxicity of intraperitoneally administered compound at dose 6 mg/kg/inj was determined against ip implanted murine M-109 lung carcinoma; assay type: organism-based; design: route intraperitoneal; details: mouse
HCT-116 [3] = experiment: In vitro cytotoxicity was determined by inhibition against HCT116 cell line proliferation after 72 hours of incubation; assay type: cell-based; details: Homo sapiens, HCT-116, 72 h
HCT-116 [4] = experiment: cells; details: Homo sapiens
M109 [5] = experiment: In vivo cytotoxicity of intraperitoneally administered compound was determined against ip implanted murine M-109 lung carcinoma; NA means not active; assay type: organism-based; details: mouse
M109 [6] = experiment: In vivo cytotoxicity of intraperitoneally administered compound at dose 1 mg/kg/injection was determined against ip implanted murine M-109 lung carcinoma; assay type: organism-based; design: route intraperitoneal; details: mouse
M109 [7] = experiment: In vivo cytotoxicity of intraperitoneally administered compound at dose 4 mg/kg/inj was determined against ip implanted murine M-109 lung carcinoma; assay type: organism-based; design: route intraperitoneal; details: mouse

Row | Compound | Tubulin polymerization ratio (HCT-116 [1]) | T/C (M109 [2]) [mg kg-1 injection-1] | IC50 (HCT-116 [3]) [nM] | IC50 (HCT-116 [4]) [nM] | T/C (M109 [5]) | T/C (M109 [6]) [mg kg-1 injection-1] | T/C (M109 [7]) [%]
1 | CC(=O)O[C@H]1C(=O)[C@@]2(C)C([C@H](OC(=O)c3ccccc3)[C@]3(O)C[C@H](OC(=O)[C@H](O)C(NC(=O)c4ccccc4)c4ccccc4)C(C)=C1C3(C)C)[C@]1(OC(=O)C3CC3)CO[C@@H]1C[C@@H]2O (stereo not given in full) | 0.24 | 188 | 1 | 0.25 | – | – | –
2 | CC(=O)O[C@H]1C(=O)[C@@]2(C)C([C@H](OC(=O)c3ccccc3)[C@]3(O)C[C@H](OC(=O)[C@H](O)C(NC(=O)c4ccccc4)c4ccccc4)C(C)=C1C3(C)C)[C@]1(OC(=O)n3ccnc3)CO[C@@H]1C[C@@H]2O (stereo not given in full) | 263 | – | 803 | 251 | – | – | –
3 | CC(=O)O[C@H]1C(=O)[C@@]2(C)C([C@H](OC(=O)c3ccccc3)[C@]3(O)C[C@H](OC(=O)[C@H](O)C(NC(=O)c4ccccc4)c4ccccc4)C(C)=C1C3(C)C)[C@]1(OC(=O)C(C)C)CO[C@@H]1C[C@@H]2O (stereo not given in full) | 0.46 | – | 5 | 1.25 | – | – | –
4 | CCCCC(=O)O[C@@]12CO[C@@H]1C[C@H](O)[C@@]1(C)C(=O)[C@H](OC(C)=O)C3=C(C)[C@@H](OC(=O)[C@H](O)C(NC(=O)c4ccccc4)c4ccccc4)C[C@@](O)([C@@H](OC(=O)c4ccccc4)C12)C3(C)C (stereo not given in full) | 1.04 | – | 2 | 0.5 | – | – | –
5 | CCC(=O)O[C@@]12CO[C@@H]1C[C@H](O)[C@@]1(C)C(=O)[C@H](OC(C)=O)C3=C(C)[C@@H](OC(=O)[C@H](O)C(NC(=O)c4ccccc4)c4ccccc4)C[C@@](O)([C@@H](OC(=O)c4ccccc4)C12)C3(C)C (stereo not given in full) | 1.5 | – | 2 | 0.5 | – | – | –
6 | CC(=O)O[C@H]1C(=O)[C@@]2(C)C([C@H](OC(=O)c3ccccc3)[C@]3(O)C[C@H](OC(=O)[C@H](O)C(NC(=O)OC(C)(C)C)c4ccco4)C(C)=C1C3(C)C)[C@]1(OC(=O)C3CCC3)CO[C@@H]1C[C@@H]2O (stereo not given in full) | 0.48 | – | 1.9 | 0.48 | Not Active | – | –
7 | CC(=O)O[C@H]1C(=O)[C@@]2(C)C([C@H](OC(=O)c3ccccc3)[C@]3(O)C[C@H](OC(=O)[C@H](O)C(NC(=O)c4ccccc4)c4ccccc4)C(C)=C1C3(C)C)[C@]1(OC(=O)C3CCCC3)CO[C@@H]1C[C@@H]2O (stereo not given in full) | 1.54 | – | 2 | 0.5 | – | – | –
8 | CC(=O)O[C@H]1C(=O)[C@@]2(C)C([C@H](OC(=O)c3ccccc3)[C@]3(O)C[C@H](OC(=O)[C@H](O)C(NC(=O)c4ccccc4)c4ccccc4)C(C)=C1C3(C)C)[C@]1(OC(=O)c3ccc(F)cc3)CO[C@@H]1C[C@@H]2O (stereo not given in full) | 61 | – | 790 | 198 | – | – | –
9 | CC(=O)O[C@H]1C(=O)[C@@]2(C)C([C@H](OC(=O)c3ccccc3)[C@]3(O)C[C@H](OC(=O)[C@H](O)C(C=C(C)C)NC(=O)c4ccccc4)C(C)=C1C3(C)C)[C@]1(OC(=O)C3CC3)CO[C@@H]1C[C@@H]2O (stereo not given in full) | 0.36 | – | 1.7 | 0.61 | Not Active | – | –
10 | CCOC(=O)O[C@@]12CO[C@@H]1C[C@H](O)[C@@]1(C)C(=O)[C@H](OC(C)=O)C3=C(C)[C@@H](OC(=O)[C@H](O)C(NC(=O)c4ccccc4)c4ccccc4)C[C@@](O)([C@@H](OC(=O)c4ccccc4)C12)C3(C)C (stereo not given in full) | 0.64 | 142 | 1 | 0.25 | – | – | –
11 | CC(=O)O[C@H]1C(=O)[C@@]2(C)C([C@H](OC(=O)c3ccccc3)[C@]3(O)C[C@H](OC(=O)[C@H](O)C(NC(=O)c4ccccc4)c4ccccc4)C(C)=C1C3(C)C)[C@]1(OC(=O)NC3CCC3)CO[C@@H]1C[C@@H]2O (stereo not given in full) | 0.76 | – | 9.2 | 2.3 | – | – | –
12 | CC(=O)O[C@H]1C(=O)[C@@]2(C)C([C@H](OC(=O)c3ccccc3)[C@]3(O)C[C@H](OC(=O)[C@H](O)C(NC(=O)c4ccccc4)c4ccccc4)C(C)=C1C3(C)C)[C@]1(OC(=O)N3CC3)CO[C@@H]1C[C@@H]2O (stereo not given in full) | – | – | 15.6 | 6.5 | – | – | –
13 | CCOC(=O)O[C@@]12CO[C@@H]1C[C@H](O)[C@@]1(C)C(=O)[C@H](OC(C)=O)C3=C(C)[C@@H](OC(=O)[C@H](O)C(NC(=O)c4ccccc4)c4ccco4)C[C@@](O)([C@@H](OC(=O)c4ccccc4)C12)C3(C)C (stereo not given in full) | 0.4 | – | 1.5 | 0.43 | Not Active | – | –
14 | COC(=O)O[C@@]12CO[C@@H]1C[C@H](O)[C@@]1(C)C(=O)[C@H](OC(C)=O)C3=C(C)[C@@H](OC(=O)[C@H](O)C(NC(=O)c4ccccc4)c4ccco4)C[C@@](O)([C@@H](OC(=O)c4ccccc4)C12)C3(C)C (stereo not given in full) | 0.33 | – | 2.3 | 0.57 | Not Active | – | –
15 | CCCOC(=O)O[C@@]12CO[C@@H]1C[C@H](O)[C@@]1(C)C(=O)[C@H](OC(C)=O)C3=C(C)[C@@H](OC(=O)[C@H](O)C(NC(=O)c4ccccc4)c4ccccc4)C[C@@](O)([C@@H](OC(=O)c4ccccc4)C12)C3(C)C (stereo not given in full) | 0.76 | – | 2.6 | 0.67 | – | – | –
16 | CC(=O)O[C@H]1C(=O)[C@@]2(C)C([C@H](OC(=O)c3ccccc3)[C@]3(O)C[C@H](OC(=O)[C@H](O)C(NC(=O)c4ccccc4)c4ccccc4)C(C)=C1C3(C)C)[C@]1(OC(=O)C(Cl)(Cl)Cl)CO[C@@H]1C[C@@H]2O (stereo not given in full) | 0.68 | – | 4 | 1.1 | – | – | –
17 | CCCC(=O)O[C@@]12CO[C@@H]1C[C@H](O)[C@@]1(C)C(=O)[C@H](OC(C)=O)C3=C(C)[C@@H](OC(=O)[C@H](O)C(NC(=O)OC(C)(C)C)c4ccco4)C[C@@](O)([C@@H](OC(=O)c4ccccc4)C12)C3(C)C (stereo not given in full) | 0.5 | – | 2.8 | 0.7 | – | 96 | –
18 | CC(=O)O[C@H]1C(=O)[C@@]2(C)C([C@H](OC(=O)c3ccccc3)[C@]3(O)C[C@H](OC(=O)[C@H](O)C(NC(=O)c4ccccc4)c4ccccc4)C(C)=C1C3(C)C)[C@]1(O)CO[C@@H]1C[C@@H]2O (stereo not given in full) | 200 | – | > 1000 | > 200 | – | – | –
19 | CCCCCC(=O)O[C@@]12CO[C@@H]1C[C@H](O)[C@@]1(C)C(=O)[C@H](OC(C)=O)C3=C(C)[C@@H](OC(=O)[C@H](O)C(NC(=O)c4ccccc4)c4ccccc4)C[C@@](O)([C@@H](OC(=O)c4ccccc4)C12)C3(C)C (stereo not given in full) | 3.4 | – | 6 | 1.5 | – | – | –
20 | C=CC(=O)O[C@@]12CO[C@@H]1C[C@H](O)[C@@]1(C)C(=O)[C@H](OC(C)=O)C3=C(C)[C@@H](OC(=O)[C@H](O)C(NC(=O)c4ccccc4)c4ccccc4)C[C@@](O)([C@@H](OC(=O)c4ccccc4)C12)C3(C)C (stereo not given in full) | 0.42 | – | 6 | 1.5 | – | – | –
21 | CC(=O)O[C@H]1C(=O)[C@@]2(C)C([C@H](OC(=O)c3ccccc3)[C@]3(O)C[C@H](OC(=O)[C@H](O)C(NC(=O)c4ccccc4)c4ccccc4)C(C)=C1C3(C)C)[C@]1(OC(=O)C3CCC3)CO[C@@H]1C[C@@H]2O (stereo not given in full) | 0.44 | – | 1.5 | 0.38 | Not Active | – | –
22 | CC(=O)O[C@H]1C(=O)[C@@]2(C)C([C@H](OC(=O)c3ccccc3)[C@]3(O)C[C@H](OC(=O)[C@H](O)C(C=C(C)C)NC(=O)OC(C)(C)C)C(C)=C1C3(C)C)[C@]1(OC(=O)C3CC3)CO[C@@H]1C[C@@H]2O (stereo not given in full) | 0.36 | – | 7.7 | 2.85 | Not Active | – | –
23 | CC(=O)O[C@H]1C(=O)[C@@]2(C)C([C@H](OC(=O)c3ccccc3)[C@]3(O)C[C@H](OC(=O)[C@H](O)C(NC(=O)c4ccccc4)c4ccccc4)C(C)=C1C3(C)C)[C@]1(OC(=O)CF)CO[C@@H]1C[C@@H]2O (stereo not given in full) | 1.2 | – | 7 | 1.75 | – | – | –
24 | CC(=O)O[C@H]1C(=O)[C@@]2(C)C([C@H](OC(=O)c3ccccc3)[C@]3(O)C[C@H](OC(=O)[C@H](O)C(NC(=O)c4ccccc4)c4ccccc4)C(C)=C1C3(C)C)[C@]1(OC(=O)c3ccccc3)CO[C@@H]1C[C@@H]2O (stereo not given in full) | >60 | – | 410 | 103 | – | – | –
25 | CC(=O)O[C@H]1C(=O)[C@@]2(C)C([C@H](OC(=O)c3ccccc3)[C@]3(O)C[C@H](OC(=O)[C@H](O)C(NC(=O)OC(C)(C)C)c4ccco4)C(C)=C1C3(C)C)[C@]1(OC(=O)C3CC3)CO[C@@H]1C[C@@H]2O (stereo not given in full) | 0.33 | – | 1.3 | 0.33 | – | – | 100
26 | CCOC(=O)O[C@@]12CO[C@@H]1C[C@H](O)[C@@]1(C)C(=O)[C@H](OC(C)=O)C3=C(C)[C@@H](OC(=O)[C@H](O)C(NC(=O)OC(C)(C)C)c4ccco4)C[C@@](O)([C@@H](OC(=O)c4ccccc4)C12)C3(C)C (stereo not given in full) | 0.3 | – | 2.95 | 0.59 | – | – | 144
27 | C/C=C/C(=O)O[C@@]12CO[C@@H]1C[C@H](O)[C@@]1(C)C(=O)[C@H](OC(C)=O)C3=C(C)[C@@H](OC(=O)[C@H](O)C(NC(=O)c4ccccc4)c4ccccc4)C[C@@](O)([C@@H](OC(=O)c4ccccc4)C12)C3(C)C (stereo not given in full) | 0.7 | – | 2.3 | 0.58 | – | – | –
28 | CCCOC(=O)O[C@@]12CO[C@@H]1C[C@H](O)[C@@]1(C)C(=O)[C@H](OC(C)=O)C3=C(C)[C@@H](OC(=O)[C@H](O)C(NC(=O)OC(C)(C)C)c4ccco4)C[C@@](O)([C@@H](OC(=O)c4ccccc4)C12)C3(C)C (stereo not given in full) | 0.71 | – | 3 | 0.6 | Not Active | – | –
